According to patent publication US20110251379A1, “COMPOUNDS USEFUL FOR TREATING NEURODEGENERATIVE DISORDERS” (Satori Pharmaceuticals, Inc., priority 2010, published 2011):

Tested on: amyloid-beta (1-42) peptide
Experiment: ELISA assay of amyloid-beta (1-42) in conditioned media of 2B7 cells
Type: cell-based
Settings: for IC50: Aβ-42, 2B7 cells, 5 hours, read-out: IC50 range; for inhibition at 100 µM / inhibition at 20 µM: read-out: % Inhibition (range)
Experimental: Compounds of the present invention, and extracts comprising said compounds, may be assayed as inhibitors of amyloid-beta (1-42) peptide in vitro or in vivo. Such assay methods are described in detail in U.S. Pat. No. 6,649,196, the entirety of which is hereby incorporated herein by reference.
In certain embodiments, provided compounds of the present invention, and extracts comprising said compounds, were assayed as inhibitors of amyloid-beta (1-42) peptide in vitro using an ELISA assay.
Capture Plate Prep: • 6E10 was diluted to 5.0 ug/mL in 100 mM NaHCO3 pH 8.2 (10 ug aliquot per 2 mL buffer); • 100 uL capture antibody solution was added to wells of 96 well plate; • Incubated overnight at 4° C. sealed; • Aspirated off capture antibody; and • Blocked with 250 uL of Blocking Buffer for 2-4 hours at rt sealed.
Conditioned Media: • Cultured 2B7 cells in 96 well plate with 250 uL of media per well until confluent; • Prepared serial dilution of compounds in DMSO at 100× the final desired concentration; • Washed wells with 2B7 cells lx with 250 uL of media; • Diluted DMSO stocks 1:100 into media and mix; and • Added 250 μL of media containing compounds (1% DMSO) to wells with 2B7 cells for 5 hours at 37° C.
Elisa Sample Prep: • Diluted conditioned media 1:2 into blocking buffer; • NOTE: If assaying for A-Beta 1-40 or total A-Beta, then diluted above sample 1:10 with a 50/50 mixture of non-conditioned media containing 1% DMSO and blocking buffer.
Standard Curve Sample Prep: • Diluted appropriate A-Beta peptide stock (stored in 1% NH4OH) to 200 μg/mL in blocking buffer; • Prepared a 1:2 serial dilution from the 200 μg/mL sample (150 μL into 150 μL blocking buffer); and • Added equal volume of standard curve samples to non-conditioned media with 1% DMSO.
Overnight Sample Incubation: • Aspirated blocking buffer from blocked plate; • Added 100 μL of samples to wells of plate (samples will be 50% media with 1% DMSO and 50% blocking buffer; and • Incubated overnight at 4° C. sealed.
Addition of Detection Antibody: • Aspirated off samples, wash 2× with 250 μL blocking buffer; and • Added 100 μL detection antibody labeled with HRP at 0.25 ug/mL in blocking buffer for 4 hours at room temperature sealed.
Final Wash and Readout: • Aspirated wells, wash 5× with 250 μL of PBS-T (2 minutes each wash at 30 RPM); • Added 100 μL TMB for 20 minutes; • Added 100 μL of 1M H3PO4; and • Read at 450 nm.
Coating Buffer (100 mM NaHCO3 pH 8.2)
PBS-T (PBS with 0.05% Tween-20)
Blocking Buffer (1% BSA in PBS-T)

CC1CC(CN(CC(C)(C)O)S(C)(=O)=O)OC2C1C1(C)CCC34CC35CCC(O)C(C)(C)C5CCC4C1(C)C2O (stereo not drawn)
IC50: > 10 µM

CC(=O)N(Cc1ccccc1)C(C(=O)NCc1ccccc1)C1CC(C)C2C(O1)C(O)C1(C)C3CCC4C(C)(C)C(O)CCC45CC35CCC21C (stereo not drawn)
IC50: > 10 µM

CC1CC(c2nnco2)OC2C1C1(C)CCC34CC35CCC(O)C(C)(C)C5CCC4C1(C)C2O (stereo not drawn)
IC50: > 10 µM

CC1CC(CN2CCCCC2=O)OC2C1C1(C)CCC34CC35CCC(O)C(C)(C)C5CCC4C1(C)C2O (stereo not drawn)
IC50: > 10 µM

CC(=O)N(C)C(C(=O)NCc1ccccc1)C1CC(C)C2C(O1)C(O)C1(C)C3CCC4C(C)(C)C(O)CCC45CC35CCC21C (stereo not drawn)
IC50: > 10 µM

CCC(=O)O[C@@H]([C@H]1C[C@@H](C)C2C(O1)C(N)[C@@]1(C)[C@@H]3CC[C@H]4C(C)(C)[C@@H](O)CC[C@@]45C[C@@]35CC[C@]21C)C(C)(C)O (stereo partly drawn)
inhibition at 100 µM (Aβ-42, 100 umol/L): 25 to 75%

CC(=O)O[C@@H]([C@H]1C[C@@H](C)C2=C(O1)[C@H](O[Si](C)(C)C(C)(C)C)[C@@]1(C)[C@@H]3CC[C@H]4C(C)(C)[C@H](N)CC[C@@]45C[C@@]35CC[C@]21C)C(C)(C)O
inhibition at 100 µM (Aβ-42, 100 umol/L): < 25%

C[C@@H]1C[C@H](C=O)OC2C1[C@@]1(C)CC[C@@]34C[C@@]35CC[C@H](O)C(C)(C)[C@@H]5CC[C@H]4[C@]1(C)[C@H]2O (stereo partly drawn)
inhibition at 100 µM (Aβ-42, 100 umol/L): < 25%

C[C@@H]1C[C@H](CO)OC2C1[C@@]1(C)CC[C@@]34C[C@@]35CC[C@H](O)C(C)(C)[C@@H]5CC[C@H]4[C@]1(C)[C@H]2O (stereo partly drawn)
inhibition at 100 µM (Aβ-42, 100 umol/L): < 25%

C[C@@H]1C[C@H](C(=O)C(C)(C)O)OC2C1[C@@]1(C)CC[C@@]34C[C@@]35CC[C@H](O)C(C)(C)[C@@H]5CC[C@H]4[C@]1(C)[C@H]2O (stereo partly drawn)
inhibition at 20 µM (Aβ-42, 20 umol/L): < 25%

C[C@@H]1C[C@H]([C@H](OC(N)=O)C(C)(C)O)OC2C1[C@@]1(C)CC[C@@]34C[C@@]35CC[C@H](O)C(C)(C)[C@@H]5CC[C@H]4[C@]1(C)[C@H]2O (stereo partly drawn)
inhibition at 20 µM (Aβ-42, 20 umol/L): 25 to 75%

CC(=O)/C=C/[C@H]1C[C@@H](C)C2C(O1)[C@H](O)[C@@]1(C)[C@@H]3CC[C@H]4C(C)(C)[C@@H](O)CC[C@@]45C[C@@]35CC[C@]21C (stereo partly drawn)
inhibition at 20 µM (Aβ-42, 20 umol/L): < 25%

CC(=O)CCC1C[C@@H](C)C2C(O1)[C@H](O)[C@@]1(C)[C@@H]3CC[C@H]4C(C)(C)[C@@H](O)CC[C@@]45C[C@@]35CC[C@]21C (stereo partly drawn)
inhibition at 20 µM (Aβ-42, 20 umol/L): < 25%

CC(=O)O[C@@H]([C@H]1C[C@@H](C)C2C(O1)[C@H](O)[C@@]1(C)[C@@H]3CC[C@H]4C(C)(C)C(=O)CC[C@@]45C[C@@]35CC[C@]21C)C(C)(C)O (stereo partly drawn)
inhibition at 100 µM (Aβ-42, 100 umol/L): 25 to 75%

CC(=O)O[C@@H]([C@H]1C[C@@H](C)C2C(O1)[C@H](O)[C@@]1(C)[C@@H]3CC[C@H]4C(C)(C)[C@H](N)CC[C@@]45C[C@@]35CC[C@]21C)C(C)(C)O (stereo partly drawn)
inhibition at 100 µM (Aβ-42, 100 umol/L): 25 to 75%

CC(=O)O[C@@H]([C@H]1C[C@@H](C)C2C(O1)[C@H](O)[C@@]1(C)[C@@H]3CC[C@H]4C(C)(C)[C@H](N5CCOCC5)CC[C@@]45C[C@@]35CC[C@]21C)C(C)(C)O (stereo partly drawn)
inhibition at 100 µM (Aβ-42, 100 umol/L): < 25%

C[C@@H]1C[C@H]([C@@H]2OC(=O)OC2(C)C)OC2C1[C@@]1(C)CC[C@@]34C[C@@]35CC[C@H](O)C(C)(C)[C@@H]5CC[C@H]4[C@]1(C)[C@H]2O (stereo partly drawn)
inhibition at 100 µM (Aβ-42, 100 umol/L): 25 to 75%

CC(=O)O[C@@H]([C@H]1C[C@@H](C)C2C(O1)[C@H](OC(N)=O)[C@@]1(C)[C@@H]3CC[C@H]4C(C)(C)[C@@H](OC(N)=O)CC[C@@]45C[C@@]35CC[C@]21C)C(C)(C)O (stereo partly drawn)
inhibition at 20 µM (Aβ-42, 20 umol/L): < 25%

CC1CC(C(O)C(C)(C)O)OC2C1C1(C)CCC34CC35CCC(OC3CN(CCCC(=O)O)CCO3)C(C)(C)C5CCC4C1(C)C2O (stereo not drawn)
% Inhibition (range) (Aβ-42, 20 umol/L): E E (% inhibition of 25-75%) | % Inhibition (range) (Aβ-42, 100 umol/L): E E (% inhibition of 25-75%) | IC50: > 10 µM

CC1CC(C(O)C(C)(C)O)OC2C1C1(C)CCC34CC35CCC(OC3CN(CCC(=O)O)CCO3)C(C)(C)C5CCC4C1(C)C2O (stereo not drawn)
% Inhibition (range) (Aβ-42, 20 umol/L): E E (% inhibition of 25-75%) | % Inhibition (range) (Aβ-42, 100 umol/L): E E (% inhibition of 25-75%)

CC1CC(C(O)C(C)(C)O)OC2C1C1(C)CCC34CC35CCC(OC3CN(C(=O)C6CCOCC6)CCO3)C(C)(C)C5CCC4C1(C)C2O (stereo not drawn)
% Inhibition (range) (Aβ-42, 20 umol/L): E (% inhibition of 25-75%)

CC1CC(C(O)C(C)(C)O)OC2C1C1(C)CCC34CC35CCC(OC3CN(C(=O)Cc6cccnc6)CCO3)C(C)(C)C5CCC4C1(C)C2O (stereo not drawn)
% Inhibition (range) (Aβ-42, 100 umol/L): F (% inhibition of <25%)

CC1CC(C(O)C(C)(C)O)OC2C1C1(C)CCC34CC35CCC(OC3CN(C(=O)Cc6ccccn6)CCO3)C(C)(C)C5CCC4C1(C)C2O (stereo not drawn)
% Inhibition (range) (Aβ-42, 100 umol/L): F (% inhibition of <25%)

CC1CC(C(O)C(C)(C)O)OC2C1C1(C)CCC34CC35CCC(OC3CN(C(=O)Cc6ccncc6)CCO3)C(C)(C)C5CCC4C1(C)C2O (stereo not drawn)
% Inhibition (range) (Aβ-42, 100 umol/L): F (% inhibition of <25%)

CC1CC(C(O)C(C)(C)O)OC2C1C1(C)CCC34CC35CCC(OC3CN(C(=O)c6cccnc6)CCO3)C(C)(C)C5CCC4C1(C)C2O (stereo not drawn)
% Inhibition (range) (Aβ-42, 100 umol/L): F (% inhibition of <25%)

CC1CC(C(O)C(C)(C)O)OC2C1C1(C)CCC34CC35CCC(OC3CN(C(=O)c6ccncc6)CCO3)C(C)(C)C5CCC4C1(C)C2O (stereo not drawn)
% Inhibition (range) (Aβ-42, 20 umol/L): E E (% inhibition of 25-75%) | % Inhibition (range) (Aβ-42, 100 umol/L): E E (% inhibition of 25-75%)

CC1CC(C(O)C(C)(C)O)OC2C1C1(C)CCC34CC35CCC(OC3CN(C(=O)CN6CCOCC6)CCO3)C(C)(C)C5CCC4C1(C)C2O (stereo not drawn)
% Inhibition (range) (Aβ-42, 100 umol/L): F (% inhibition of <25%)

CC1CC(C(O)C(C)(C)O)OC2C1C1(C)CCC34CC35CCC(OC3CN(C(=O)CC6CCOCC6)CCO3)C(C)(C)C5CCC4C1(C)C2O (stereo not drawn)
% Inhibition (range) (Aβ-42, 20 umol/L): F (% inhibition of <25%)

CC1CC(C(O)C(C)(C)O)OC2C1C1(C)CCC34CC35CCC(OC3CN(C(=O)Cc6ccc(F)cc6)CCO3)C(C)(C)C5CCC4C1(C)C2O (stereo not drawn)
% Inhibition (range) (Aβ-42, 20 umol/L): E E (% inhibition of 25-75%) | % Inhibition (range) (Aβ-42, 100 umol/L): E E (% inhibition of 25-75%)

CC1CC(C(O)C(C)(C)O)OC2C1C1(C)CCC34CC35CCC(OC3CN(C(=O)C6CCCCC6)CCO3)C(C)(C)C5CCC4C1(C)C2O (stereo not drawn)
% Inhibition (range) (Aβ-42, 20 umol/L): E (% inhibition of 25-75%)

CC1CC(C(O)C(C)(C)O)OC2C1C1(C)CCC34CC35CCC(OC3CN(C(=O)C6CC6)CCO3)C(C)(C)C5CCC4C1(C)C2O (stereo not drawn)
% Inhibition (range) (Aβ-42, 20 umol/L): E (% inhibition of 25-75%)

CC1CC(C(O)C(C)(C)O)OC2C1C1(C)CCC34CC35CCC(OC3CN(C(=O)Cc6cc(F)cc(F)c6)CCO3)C(C)(C)C5CCC4C1(C)C2O (stereo not drawn)
% Inhibition (range) (Aβ-42, 20 umol/L): E E (% inhibition of 25-75%) | % Inhibition (range) (Aβ-42, 100 umol/L): E E (% inhibition of 25-75%)

CC1CC(C(O)C(C)(C)O)OC2C1C1(C)CCC34CC35CCC(OC3CN(C(=O)CC6CCC6)CCO3)C(C)(C)C5CCC4C1(C)C2O (stereo not drawn)
% Inhibition (range) (Aβ-42, 20 umol/L): E (% inhibition of 25-75%) | % Inhibition (range) (Aβ-42, 100 umol/L): F (% inhibition of <25%)

CC1CC(C(O)C(C)(C)O)OC2C1C1(C)CCC34CC35CCC(OC3CN(C6CCOCC6)CCO3)C(C)(C)C5CCC4C1(C)C2O (stereo not drawn)
% Inhibition (range) (Aβ-42, 20 umol/L): E (% inhibition of 25-75%)

CC(=O)N1CC(N2CCOC(OC3CCC45CC46CCC4(C)C7C(C)CC(C(O)C(C)(C)O)OC7C(O)C4(C)C6CCC5C3(C)C)C2)C1 (stereo not drawn)
% Inhibition (range) (Aβ-42, 20 umol/L): F F (% inhibition of <25%) | % Inhibition (range) (Aβ-42, 100 umol/L): F F (% inhibition of <25%)

CC1CC(C(O)C(C)(C)O)OC2C1C1(C)CCC34CC35CCC(OC3CN(C6CC6)CCO3)C(C)(C)C5CCC4C1(C)C2O (stereo not drawn)
% Inhibition (range) (Aβ-42, 100 umol/L): F (% inhibition of <25%)

CC1CC(C(O)C(C)(C)O)OC2C1C1(C)CCC34CC35CCC(OC3CN(CCF)CCO3)C(C)(C)C5CCC4C1(C)C2O (stereo not drawn)
% Inhibition (range) (Aβ-42, 100 umol/L): F (% inhibition of <25%)
